Values quoted from earlier work, collected in US20060110448A1, “Combination of a macrolide and a local anesthetic for the treatment of dermatological diseases” (priority 2003, published 2006).

Test system: rat model of allogeneic kidney transplantation
Details: oral administration, suppression of systemic immune response

In the case of C=CC[C@@H]1/C=C(\C)C[C@H](C)C[C@H](OC)[C@H]2O[C@@](O)(C(=O)C(=O)N3CCCC[C@H]3C(=O)O[C@H](/C(C)=C/[C@@H]3CC[C@@H](O)[C@H](OC)C3)[C@H](C)[C@@H](O)CC1=O)[C@H](C)C[C@@H]2OC [tacrolimus], the “minimum effective dose (MED)” value is listed as 14 mg/kg.
